According to US20160115196A1, “SELF-ASSEMBLED MICRO-AND NANOSTRUCTURES” (NORTHWESTERN UNIVERSITY, priority 2013, published 2016):
Where no end group is shown, it is not given here. [ ]: non-standard residue; d: D form. Dopa = N[C@@H](Cc1ccc(O)c(O)c1)C(=O)O

Experiments:
[1] = AFM force mapping adhesion measurements with colloidal probe (Embodiment 2); format: physicochemical; settings: for mean adhesion force from force map histogram: tip velocity 1000 nm/s, compressive force 20 nN
Experimental: In an alternative embodiment, AFM analysis was performed using an Asylum MFP-1D AFM instrument (Asylum Research, Santa Barbara, Calif., USA).
The AFM measurment was performed by emploting force mapping while simultaneously providing nanoscale topographical and mechanical information about the hydrogel. Force mapping involves generating individual force curves at discrete points on a material, which are then used to calculate stiffness and height values.
(§1) After overnight incubation, 10 μL of each sample were deposited on a glass slide and dried at room temperature. Force measurements of the samples were conducted using a SiO2 colloidal probe (tip velocity 1000 nm/s, compressive force 20 nN). To investigate the glass surface area morphology after peeling, 30 μL of freshly prepared Fmoc-DOPA-DOPA-Lys solutions (12.5 mg/mL, prepared in DMSO or ethanol as described above) were deposited between two microscope glass slides. This construct was incubated overnight at room temperature under 100 mg weight Finally, the upper glass slide was peeled off and the contact area of either slide was imaged using an Ultrasharp AFM probe (NSC21/Ti-Pt, MikroMasch) operated in tapping mode.

[2] = Macroscopic adhesion of two glass slides and peeling; format: physicochemical; settings: prepared in ethanol or DMSO
Experimental: as §1

[3] = Rheological measurements of in situ-formed hydrogel; format: physicochemical; settings: 5 mg/mL
Experimental: Rheological measurements for in situ-formed Fmoc-DOPA-DOPA hydrogel were performed using an AR-G2 rheometer (TA Instruments, New Castle, Del., USA). Time-sweep oscillatory tests in 20 mm parallel plate geometry were conducted at 0.7% strain and 1 Hz frequency on 200 μL of fresh solution (resulting in a gap size of about 0.6 mm), 1 min after its preparation. In order to determine the linear viscoelastic region oscillatory strain (0.01-100%) and frequency sweep (0.01-100 Hz) tests were conducted 45 min after diluting the stock solution with Milli-Q water. All rheology tests were done in triplicates and averaged.

[4] = Silver reduction / silver deposition assay; settings: silver nitrate added to pre-formed assemblies; TEM, HR-SEM or E-SEM
Experimental: Silver reduction assay was performed with pre-prepared Fmoc-DOPA-DOPA hydrogels at a concentration of 5 mg/mL (8.35 mM). 50 μL of 13.2 mM silver nitrate were added to 500 μL hydrogel aliquots by gentle pipetting, resulting in 1.2 mM final concentration of silver nitrate. This solution was incubated at room temperature for several days. At different time points, 10 μL aliquots were taken for TEM analysis and negative staining was not applied. To examine silver reduction using UV-vis spectroscopy, silver nitrate was added to a 5 mg/mL hydrogel pre-prepared as described above and 150 μL aliquots of Fmoc-DOPA-DOPA hydrogel with or without silver nitrate were pipetted into a 96-well UV-Star UV transparent plate (Greiner BioOne, Frickenhausen, Germany) Spectra were collected after 5 days using a Biotek Synergy HT plate reader over the range of 300-700 nm and compared to blank samples of silver nitrate only, or of the peptide only.
Peptide stock solution was diluted to a final concentration of 5 mg/ml in double distilled water. Then metal salt (AgNO3) was added to the sample and the samples were analyzed by TEM or HR-SEM. AgNO3 concentration was determined according to the final catechol concentration in the peptide, with a constant ratio of [AgNO3]/[Catechol]=0.0723.
Silver deposition was done by preparing 15 mM peptide solutions and removing residual peptide monomers. This was done by centrifugation at 12,000 RPM for 15 min, discarding the supernatant and resuspention in ultra-pure water. This procedure was repeated once more. Samples for electron microscopy were taken as control and the solution was centrifuged at 12,000 RPM for 15 min and resuspended in an aqueous solution of 2.17 mM AgNO3 for 15 min Finally, the solution was centrifuged at 9000 RPM for 10 min and resuspended in water. Samples for electron microscopy were taken again.

[5] = Thermal perturbation of assemblies (temperature-dependent CD, FTIR, TEM); format: physicochemical; settings: 0.15 mM in water, stepwise 18° C. to 90° C. and back
Experimental: CD spectra were collected as described above except that the spectra were obtained throughout temperature variation done in a stepwise fashion up and then down. […] (in the following steps: 25° C., 37° C., 50° C., 70° C., 90° C., 70° C., 50° C., 37° C., 25° C.). The sample was allowed to equilibrate for 10 min and the temperature was monitored by a thermocouple in the cuvette holder block. At the end of the measurments, the cuvette content was sampled for TEM and FTIR analysis as described above. As control, TEM and FTIR samples were taken from an aliquot of the same solution which was not subjected to temperature variations.

## Fmoc-DOPA-DOPA-Lys
[1]; 1.25 wt% (12.5 mg/mL) prepared in 12.5% DMSO and water
  adhesion force (force map): > 300 nN
[1]; 1.25 wt% (12.5 mg/mL) prepared in 12.5% ethanol and water
  adhesion force (force map): more than 214 nN
[2]
  macroscopic adhesive properties: capable of gluing together two glass slides

## Fmoc-DOPA-DOPA
[1]; 5 mg/ml in 5% ethanol
  mean adhesion force from force map histogram: 36±11 nN
[3]
  storage modulus at 25° C. or 37° C. relative to hydrogels formed at 4° C.: approximately 40 fold
[3]; 25° C.
  storage modulus (G′) versus loss modulus (G″) in the linear region: more than one order of magnitude larger than the loss modulus
[4]
  reduction of ionic silver / silver deposition on assemblies: seamless coating of the peptide assemblies was clearly observed

## O=C(N[C@@H](Cc1ccc(O)c(O)c1)C(=O)O)OCC1c2ccccc2-c2ccccc21 [Fmoc-DOPA]
[1]; 1 mg/ml in 1% ethanol, one day of assembly
  mean adhesion force from force map histogram: 31±10.6 nN

## 3,4-dihydroxyphenyl-L-alanine-(3,4-dihydroxyphenyl-L-alanine) [DOPA-DOPA]
[4]
  reduction of ionic silver / silver deposition on assemblies: formation of silver particles

## D[Dopa]NK[Dopa]
[4]
  reduction of ionic silver / silver deposition on assemblies: possess the ability to reduce ionic silver
[5]
  stability of the ultrastructure to elevated temperature: ultrastructure is impaired by elevated temperatures
